In article PMC7263589, “Integration of phage and yeast display platforms: A reliable and cost effective approach for binning of peptides as displayed on-phage” (PLoS ONE, 2020):
Bridge positions count the residues as written; N and C are the ends. Peptide text beside a SMILES is read from it.

What was measured:
IL-23:IL-23R = target: T1, IL-23:IL-23R (Homo sapiens, UniProt P29460+Q9NPF7); experiment: IL-23:IL-23R protein-protein interaction assay, AlphaLISA; format: biochemical; conditions: disruption of the complex formed by IL-23 and IL-23R
T1 construct: made in house
T1 sequence (Q9NPF7 20-189): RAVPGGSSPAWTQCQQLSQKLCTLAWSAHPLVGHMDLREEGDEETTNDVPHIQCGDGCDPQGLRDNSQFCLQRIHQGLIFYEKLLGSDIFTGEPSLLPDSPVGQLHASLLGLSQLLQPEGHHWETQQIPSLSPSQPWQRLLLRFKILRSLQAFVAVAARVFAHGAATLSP
T1 sequence (P29460 23-328 partner): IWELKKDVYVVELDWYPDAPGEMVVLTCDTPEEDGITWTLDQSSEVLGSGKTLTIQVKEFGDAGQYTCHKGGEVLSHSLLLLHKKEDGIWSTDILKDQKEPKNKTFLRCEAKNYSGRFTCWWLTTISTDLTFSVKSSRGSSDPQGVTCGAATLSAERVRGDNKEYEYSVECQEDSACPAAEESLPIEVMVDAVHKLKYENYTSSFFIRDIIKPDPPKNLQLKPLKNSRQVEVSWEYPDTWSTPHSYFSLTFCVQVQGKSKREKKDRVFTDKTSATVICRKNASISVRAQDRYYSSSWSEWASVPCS
Method: For AlphaLISA assay, peptides at concentration of 10 mM were dissolved in DMSO and serial 3-fold dilutions were carried out using acoustic technology, dispensing peptides directly into the assay plate (ProxiPlate-384 Plus). The rest of the reagents were dissolved in assay buffer containing 25 mM HEPES pH 7.4, 150 mM NaCl, 0.02% Tween 20 and 0.1% BSA. IL-23-AVI was pre-incubated with peptide at the indicated concentrations for 30 min at room temperature. Then, FLAG-tagged IL-23R was added to the assay mix and incubated at room temperature for 1 hour. This was followed by addition of Streptavidin-coated donor beads and acceptor beads conjugated to anti-FLAG antibody. Final assay concentration of IL-23-AVI and FLAG-IL-23R were 1.5 nM and 3 nM, respectively. The assay plate was incubated for one additional hour at RT and read in an Envision plate reader. For TR-FRET assay, tested compounds were serially diluted in DMSO using an Echo acoustic and dispensed directly into the final assay plate. Final concentration of DMSO in the assay was 1%. Assays were performed by preincubation of the diluted compounds with IL-23R-FLAG for one hour at room temperature in assay buffer containing 25 mM HEPES, 150 mM NaCl, 0.02% Tween 20, 0.1% BSA; pH 7.4. Next, IL-23-AVI was added to the assay mix and incubated for 1 hour at room temperature. Finally, the detection reagents, Europium-labeled streptavidin and Anti-FLAG IgG conjugated to SureLight–Allophycocyanin were added and incubated overnight at room temperature. Then, assay microplates were read and values were collected as the ratio between fluorescence emission at 665 nm and 615 nm (665/615). The final values were expressed as a percentage of the DMSO treated controls. IC50 values were calculated by fitting the normalized data to a four parameter logistic equation.

IL-23 = target: T2, IL-23 (Homo sapiens, UniProt P29460+Q9NPF7); experiment: SPR direct binding to captured IL-23-AVI (Biacore T200); conditions: IL-23-AVI captured on streptavidin chip, 25°C, 50 μl/min, 10 mM HEPES pH 7.5, 150 mM NaCl, 0.005% P20, 3% DMSO, 1:1 binding model, multi-cycle (single cycle kinetics for 23–652 and IL-23R), n = 1, 23–447 an estimate, read-out: ka
T2 construct: made in house
T2 sequence (Q9NPF7 20-189): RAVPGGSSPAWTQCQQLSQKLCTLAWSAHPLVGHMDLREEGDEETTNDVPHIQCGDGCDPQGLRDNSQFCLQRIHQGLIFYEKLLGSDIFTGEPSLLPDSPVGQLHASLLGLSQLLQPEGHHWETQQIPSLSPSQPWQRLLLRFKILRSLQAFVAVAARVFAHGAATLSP
T2 sequence (P29460 23-328): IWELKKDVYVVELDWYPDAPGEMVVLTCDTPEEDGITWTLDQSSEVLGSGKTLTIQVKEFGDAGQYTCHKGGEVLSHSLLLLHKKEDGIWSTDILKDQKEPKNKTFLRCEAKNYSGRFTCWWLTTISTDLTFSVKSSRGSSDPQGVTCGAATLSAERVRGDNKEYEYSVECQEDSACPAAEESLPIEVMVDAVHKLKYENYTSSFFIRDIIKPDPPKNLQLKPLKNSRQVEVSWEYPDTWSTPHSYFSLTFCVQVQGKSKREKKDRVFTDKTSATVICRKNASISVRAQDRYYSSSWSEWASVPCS
Method: SPR (Biacore T200, GE Healthcare) was used to determine binding constants of the peptides against IL-23 and their competitiveness to IL-23R. All SPR experiments were performed at 25°C with flow rate of 50 μl/min. Assay buffer used in direct binding experiment was 10 mM HEPES pH 7.5, 150 mM NaCl, 0.005% P20, and 3% DMSO. Assay buffer used in competition experiment was 10 mM HEPES pH 7.5, 150 mM NaCl, 0.005% P20, and 1% BSA. All peptides were reconstituted first in DMSO as 10 mM stocks and then diluted into assay buffer. The proteins used in direct binding and competition SPR are described in S1 Table in S1 File. For direct binding of peptides against IL-23, 2000–9000 RU of IL-23-AVI was captured to streptavidin sensor chips (GE Healthcare, Series S Sensor Chip SA, BR-1005-31). Dilution series with 3-fold increment were prepared for each peptide. Initially, all peptides were tested up to 30 μM. Concentration range for some were then lowered accordingly based on affinity or nuisance behavior at high concentrations. SPR “multi-cycle” type was used for peptides 23–644, 23–437, 23–441, 23–446, and 23–447. Each cycle consisted of 30s of analyte injection and then 60s of buffer flow to monitor dissociation. “Single cycle kinetics” (SCK) type was used for 23–652 due to their long dissociation half-lives. Each SCK cycle consisted of five 60s injections of sample in increasing concentration with a final 600s of dissociation. To study IL-23 and IL-23R interaction, 200–1000 RU of IL-23-AVI and IL-23R-Fc-AVI were captured to streptavidin sensor chip. Dilution series with 3-fold increment of IL-23R-FLAG-HIS and IL-23-HIS were run in SCK cycle type as described above except the final dissociation time were 60-300s. Sensorgrams from the entire titration series for each sample were fitted globally to extract binding kinetics and affinity using Biacore T200 Evaluation Software 2.0 (GE Healthcare) according to a 1:1 binding model. To identify IL-23 binders that can block receptor binding, a competition SPR was established. In each SPR cycle, fresh IL-23R was capture (<1000 RU) by injecting 10 μg/ml of IL-23R-Fc-AVI to a Protein-A flow cell at 10 μl/min flow rate for 30s. Analyte consisted of a mixture of 20 nM of IL-23 protein and a single concentration of peptide was then injected for 30s at 50 μl/min to observe IL-23 binding. Finally, the Protein-A surface was regenerated by 10 mM Glycine pH 1.5 for 30s at 30 μl/min. IL-23 at 20 nM without peptide, “IL-23 only”, was used as control to quantify IL-23 binding without blockage; while “cold” IL-23R was used as a positive control for blockage.

Row | SMILES | AlphaLISA potency (IL-23:IL-23R) | kon (IL-23) [M⁻¹ s⁻¹]
1 | CC[C@H](C)[C@H](NC(=O)[C@H](CCC(=O)O)NC(=O)[C@H](CCCCN)NC(=O)[C@@H](NC(=O)[C@@H](N)Cc1ccccc1)[C@@H](C)O)C(=O)N[C@@H](CC(=O)O)C(=O)N[C@@H](CO)C(=O)N[C@@H](Cc1c[nH]c2ccccc12)C(=O)N[C@@H](Cc1c[nH]c2ccccc12)C(=O)N[C@@H](CC(C)C)C(=O)N[C@@H](CO)C(=O)N[C@@H](CC(C)C)C(=O)N[C@@H](CCSC)C(=O)N[C@@H](CO)C(=O)N[C@@H](CO)C(=O)O [23–437] (H-FTKEIDSWWLSLMSS-OH) | single digit micromolar | 178000
2 | CC[C@H](C)[C@H](NC(=O)[C@H](CCCCN)NC(=O)[C@@H](N)CCC(N)=O)C(=O)N[C@H](C(=O)N[C@@H](CCC(N)=O)C(=O)N[C@H]1CSSC[C@@H](C(=O)N[C@@H](CC(C)C)C(=O)N[C@@H](CC(C)C)C(=O)N[C@@H](CC(N)=O)C(=O)N[C@@H](CC(=O)O)C(=O)N[C@H](C(=O)O)C(C)C)NC(=O)[C@@H]2CCCN2C(=O)[C@H](Cc2ccc(O)cc2)NC(=O)[C@H]([C@@H](C)O)NC(=O)[C@H](Cc2c[nH]c3ccccc23)NC(=O)[C@H]([C@@H](C)CC)NC(=O)[C@H]([C@@H](C)CC)NC(=O)[C@H](Cc2ccc(O)cc2)NC(=O)[C@H](C(C)C)NC1=O)[C@@H](C)O [23–441] (H-QKITQCVYIIWTYPCLLNDV-OH; disulfide 6-15) | single digit micromolar | 190000
3 | CC(C)C[C@@H]1NC(=O)[C@H](Cc2ccc(O)cc2)NC(=O)[C@H](Cc2ccc(O)cc2)NC(=O)[C@H](CC(C)C)NC(=O)[C@@H](NC(=O)[C@H](CCC(=O)O)NC(=O)[C@@H](N)CC(C)C)CSSC[C@@H](C(=O)N[C@@H](CC(=O)O)C(=O)N[C@@H](CC(N)=O)C(=O)O)NC(=O)[C@H](C(C)C)NC(=O)[C@H](CCCCN)NC(=O)[C@H](Cc2c[nH]c3ccccc23)NC(=O)[C@H](CCCNC(=N)N)NC1=O [23–447] (H-LECLYYLRWKVCDN-OH; disulfide 3-12) | single digit micromolar | 48300
